PMC8776092, “A Toxoplasma gondii Oxopurine Transporter Binds Nucleobases and Nucleosides Using Different Binding Modes” (International Journal of Molecular Sciences, 2022)
Where “and” joins values, the source holds several entries; their conditions need not be identical. Equal entries are not always repeated. Where two headings read alike, the source gives them in different places.

Target: T1, Tg244440 (Toxoplasma gondii, UniProt A0A125YNC9)
T1 sequence (A0A125YNC9 1-462): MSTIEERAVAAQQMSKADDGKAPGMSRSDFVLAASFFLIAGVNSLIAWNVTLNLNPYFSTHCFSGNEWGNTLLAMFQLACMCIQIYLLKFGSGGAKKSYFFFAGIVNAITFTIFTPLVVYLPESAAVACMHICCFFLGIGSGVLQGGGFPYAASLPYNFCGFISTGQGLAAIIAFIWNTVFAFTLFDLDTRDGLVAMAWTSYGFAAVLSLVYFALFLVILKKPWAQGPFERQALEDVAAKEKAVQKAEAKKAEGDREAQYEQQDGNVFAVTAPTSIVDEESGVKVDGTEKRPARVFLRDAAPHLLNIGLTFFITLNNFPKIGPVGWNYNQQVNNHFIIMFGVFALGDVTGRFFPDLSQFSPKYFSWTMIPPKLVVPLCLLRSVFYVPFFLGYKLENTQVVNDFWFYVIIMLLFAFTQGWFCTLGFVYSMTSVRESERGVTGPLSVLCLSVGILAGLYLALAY
Assay: [3H]-guanine uptake and its inhibition in T. brucei TbNB-KO procyclics expressing Tg244440 (clone F5)
Format: cell-based
Details: for Ki: competition with 50 nM [3H]-guanine, Cheng-Prusoff; for Ki / Inhibition of [3H]-guanine transport by pyrimidines: 30 s; for ΔG^0 (Gibbs free energy of interaction): calculated from Km or Ki, ΔG0 = −RTln(Ki); for Inhibition of [3H]-guanine transport by pyrimidines: inhibitor at 1 mM, 0.1 μM [3H]-guanine
Procedure: Briefly, PCF cells of T. brucei in logarithmic growth were harvested by centrifugation at 1000× g for 10 min, washed twice in AB and then resuspended in fresh buffer at a final density of 10^8 cells/mL. […] Immediately after finishing the assay, all tubes were flash-frozen in liquid nitrogen and the cell pellets were cut into scintillation vials and lysed with a solution of 2% SDS for one hour under agitation. Then, 3 mL of scintillation fluid (Scintilogic U, Lablogic) was added to each vial and left agitating overnight on a rocking platform. The next morning, the vials were vigorously shaken to ensure optimal mixing and the scintillation was measured in a 300SL (Hidex) scintillation counter. All assays were carried out in triplicate. All experimental data such as Km, Ki and Vmax values are the average and SEM of at least three separate experiments, each in triplicate, unless otherwise indicated.
Background scintillation was measured in vials containing no cells or radiolabeled substrate, and counts associated with extracellular radiolabel were calculated from samples where cells were briefly incubated with the same concentration of radiolabel, but in the presence of saturating concentrations of non-radiolabeled substrate before centrifugation through oil. The average of the three control replicates was subtracted from each data point.

Structure (SMILES) | Ki (Ki) [µM] | ΔG^0 (Gibbs free energy of interaction) [kJ/mol] | also measured
O=c1[nH]c(=O)c2[nH]ccc2[nH]1 [9-deazaxanthine] | 48.2 ± 5.4 | -24.6 | δ(ΔG^0) relative to Xanthine (relative to Xanthine): 0.3 kJ/mol
O=c1[nH]cnc2cc[nH]c12 [9-deazahypoxanthine] | 9.12 ± 0.66 | -28.8 | δ(ΔG^0) relative to Hypoxanthine: 3.5 kJ/mol
O=[N+]([O-])c1ccc(CSc2ncnc3c2ncn3[C@@H]2O[C@H](CO)[C@@H](O)[C@H]2O)cc1 [S-(4-nitrobenzyl)-6-thioinosine (NBMPR), S-(4-nitrobenzyl)-6-thioinosine] | 78 ± 6 | -23.4 | δ(ΔG^0) relative to Adenosine: 0.35 kJ/mol
O=c1[nH]c(=O)c2nc[nH]c2[nH]1 [Xanthine] | 42.4 ± 4.2 | -24.9 | δ(ΔG^0) relative to Guanine: 8.7 kJ/mol; δ(ΔG^0) relative to Hypoxanthine: 7.3 kJ/mol
Nc1ncnc2c1ncn2[C@H]1C[C@H](O)[C@@H](CO)O1 [2′-deoxyadenosine] | 83.9 ± 6.2 | -23.3 | δ(ΔG^0) relative to Adenosine: 0.5 kJ/mol
Sc1ncnc2nc[nH]c12 [6-Mercaptopurine] | 3.6 ± 0.8 | -31.1 | δ(ΔG^0) relative to Hypoxanthine: 1.2 kJ/mol
OC[C@@H]1C[C@@H](O)[C@H](n2ccc3c(O)ncnc32)O1 [7-deaza-3′-deoxyinosine] | 70.8 ± 11.2 | -23.7 | δ(ΔG^0) relative to 3′-Deoxyinosine (relative to 3′-Deoxyinosine): -0.9 kJ/mol
O=c1[nH]cnc2nn[nH]c12 [8-azahypoxanthine] | > 1000 | – | inhibition at 1000 µM (read-out: Inhibition of the transport of 50 nM [3H]-guanine): < 50%; δ(ΔG^0) relative to Hypoxanthine: >15.1 kJ/mol
Nc1nc2c(ncn2[C@@H]2O[C@H](CO)C[C@H]2O)c(=O)[nH]1 [3′-deoxyguanosine] | 196 ± 12 | -21.2 | δ(ΔG^0) relative to Guanosine: 9.4 kJ/mol and 10.1 kJ/mol
OC[C@H]1O[C@@H](n2cnc3c(O)ncnc32)C[C@@H]1O [2′-deoxyinosine] | 117 ± 12 | -22.4 | δ(ΔG^0) relative to Inosine: 8.3 kJ/mol
Clc1ncnc2nc[nH]c12 [6-Chloropurine] | 109 ± 8 | -22.6 | δ(ΔG^0) relative to Hypoxanthine: 9.6 kJ/mol
Nc1nccc2c1ncn2[C@@H]1O[C@H](CO)[C@@H](O)[C@H]1O [3-deazaadenosine] | 1220 ± 140 | -16.6 | δ(ΔG^0) relative to Adenosine: 7.2 kJ/mol
Nc1ncnc2n[nH]cc12 [Aminopurinol] | – | -20.8 | Ki (read-out: Ki): 223 ± 27 µM; δ(ΔG^0) relative to Adenine: -1.6 kJ/mol
Cn1cnc2c(=O)cc[nH]c21 [9-Me,1-deazahypoxanthine] | – | – | Ki (read-out: Ki): > 1000 µM; δ(ΔG^0) relative to Hypoxanthine: >15.1 kJ/mol
O=c1[nH]cnc2c1CC=N2 [7-deazahypoxanthine] | 318 ± 30 | -20.0 | δ(ΔG^0) relative to Hypoxanthine: 12.3 kJ/mol
Nc1nc2c(ncn2[C@H]2C[C@H](O)[C@@H](CO)O2)c(=O)[nH]1 [2′-deoxyguanosine] | 281 ± 6 | -20.3 | δ(ΔG^0) relative to Guanosine: 11.0 kJ/mol; δ(ΔG^0) relative to Guanosine (listed as 2′-Deoxyguanosine): 11 kJ/mol
OC[C@H]1O[C@@H](n2cc(Cl)c3c(O)ncnc32)[C@H](O)[C@@H]1O [7-deaza-7-Chloroinosine] | 8.9 ± 1.3 | -28.8 | Affinity for Tg244440 (in words): high affinity; δ(ΔG^0) relative to Inosine: 1.9 kJ/mol
C[C@H]1O[C@@H](n2cnc3c(O)ncnc32)[C@H](O)[C@@H]1O [5′-deoxyinosine] | 35.3 ± 3 | -25.4 | δ(ΔG^0) relative to Inosine: 5.4 kJ/mol

Structure (SMILES) | Ki (Ki) [µM] | ΔG^0 (Gibbs free energy of interaction) [kJ/mol] | also measured
CCOc1ncnc2c1c(Cl)cn2[C@@H]1O[C@H](CO)[C@@H](O)[C@H]1O [6-O-ethyl,7-deaza,7-Cl-inosine] | – | -21.5 | Ki (read-out: Ki): 169 ± 10 µM; δ(ΔG^0) relative to Inosine: 9.2 kJ/mol
OC[C@H]1O[C@@H](n2cc(Br)c3c(O)ncnc32)[C@H](O)[C@@H]1O [7-deaza-7-Bromoinosine] | 7.8 ± 1.2 | -29.2 | Affinity for Tg244440 (in words): high affinity; δ(ΔG^0) relative to Inosine: 1.6 kJ/mol
Cc1c[nH]c(=O)[nH]c1=O [thymine] | – | – | Inhibition of [3H]-guanine transport by pyrimidines: significant inhibition
COc1ncnc2c1c(Cl)cn2[C@@H]1O[C@H](CO)[C@@H](O)[C@H]1O [6-O-methyl,7-deaza,7-Cl-inosine] | – | -25.1 | Ki (read-out: Ki): 39.6 ± 2.8 µM; δ(ΔG^0) relative to Inosine: 5.7 kJ/mol
O=c1ccn([C@@H]2O[C@H](CO)[C@@H](O)[C@H]2O)c(=O)[nH]1 [uridine] | – | – | Inhibition of [3H]-guanine transport by pyrimidines: significant inhibition
Nc1nc2c(c(=O)[nH]1)CC=N2 [7-deazaguanine] | 49.2 ± 5.8 | -24.6 | δ(ΔG^0) relative to Guanine: 9.1 kJ/mol
Nc1nc2c(ncn2[C@@H]2O[C@H](CO)[C@@H](O)[C@H]2O)c(=O)[nH]1 [Guanosine] | 3.3 ± 0.3 | -31.3 | δ(ΔG^0) relative to Guanine: 2.4 kJ/mol
Nc1nc(N)c2[nH]cnc2n1 [2,6-diaminopurine] | 211 ± 3.5 | -21.0 | δ(ΔG^0) relative to Adenine: -1.7 kJ/mol
Nc1ccnc2c1ncn2[C@@H]1O[C@H](CO)[C@@H](O)[C@H]1O [1-deazaadenosine] | 191 ± 10 | -21.2 | δ(ΔG^0) relative to Adenosine: 2.6 kJ/mol
O=c1[nH]ccc2nc[nH]c12 [3-deazahypoxanthine] | 59.5 ± 7.2 | -24.1 | δ(ΔG^0) relative to Hypoxanthine: 8.1 kJ/mol
C[C@H]1O[C@@H](n2cnc3c(N)ncnc32)[C@H](O)[C@@H]1O [5′-deoxyadenosine] | 85.2 ± 4.2 | -23.2 | δ(ΔG^0) relative to Adenosine: 0.6 kJ/mol
Nc1ncnc2[nH]cnc12 [Adenine] | 425 ± 80 | -19.2 | Affinity for Tg244440 (in words): Low affinity; δ(ΔG^0) relative to Hypoxanthine: 13.0 kJ/mol
OC[C@H]1O[C@@H](n2cnc3c(O)ccnc32)[C@H](O)[C@@H]1O [1-deazainosine] | 524 ± 53 | – | δ(ΔG^0) relative to Inosine: 12.1 kJ/mol
Nc1nc2nc[nH]c2c(=S)[nH]1 [6-Thioguanine] | 1.64 ± 0.25 | -33.0 | δ(ΔG^0) relative to Guanine: 0.7 kJ/mol
Oc1ncnc2[nH]ncc12 [Allopurinol] | 185 ± 15 | -21.3 | δ(ΔG^0) relative to Hypoxanthine: 10.9 kJ/mol
OC[C@@H]1C[C@@H](O)[C@H](n2cnc3c(O)ncnc32)O1 [3′-deoxyinosine] | 102 ± 15 | -22.8 | δ(ΔG^0) relative to Inosine: 8.0 kJ/mol
OC[C@H]1O[C@@H](n2cnc3cncnc32)[C@H](O)[C@@H]1O [Nebularine, 9-(β-D-ribofuranosyl)purine] | 491 ± 75 | -18.9 | ΔG^0 (Gibbs free energy of interaction) (listed as nebularine): 18.9 kJ/mol; δ(ΔG^0) relative to Adenosine: 4.9 kJ/mol; δ(ΔG^0) relative to Inosine: 11.9 kJ/mol
